From patent US12398107B2, “Fungicidal nitroanilino substituted pyrazoles” (FMC Corporation, priority 2018, dated 2025)

Experiments:
Type in all cases: in vivo
Alternaria solani = test: Test F: tomato early blight, preventive spray on tomato seedlings; conditions: 100 = 100% disease control, 0 = no control; for Test F disease control rating (tomato early blight) / pest or weed control at 50 ppm: 50 ppm
Method in brief: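 Compounds in acetone/water (50/50) with 250 ppm PEG400, dosed in ppm, sprayed to run-off on tomato seedlings; next day inoculated with A. solani spores. Held 48 h saturated at 27° C, then 3 days at 20° C; visual rating 0–100% disease control relative to controls.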

Septoria tritici = test: Test A: wheat leaf blotch, preventive spray on wheat seedlings; conditions: 100 = 100% disease control, 0 = no control relative to controls; for Test A disease control rating (wheat leaf blotch) / pest or weed control at 50 ppm: 50 ppm
Method in brief: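 Compounds were suspended in acetone/water (50/50) with 250 ppm PEG400 and sprayed to run-off on wheat seedlings. The next day the seedlings were inoculated with Septoria tritici spores, held 48 h at 24 °C in saturated humidity, then 17 days at 20 °C. Disease control was rated 0–100 relative to controls.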

[1] = system: Puccinia recondita f. sp. tritici; test: Test B: wheat leaf rust, preventive spray on wheat seedlings; conditions: 100 = 100% disease control, 0 = no control relative to controls; for Test B disease control rating (wheat leaf rust) / pest or weed control at 50 ppm: 50 ppm
Method in brief: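 Compounds in acetone/water (50/50) with 250 ppm PEG400, sprayed to run-off on wheat seedlings at stated ppm; inoculated next day with P. recondita spores. Held 24 h saturated at 20° C., then 7 days in growth chamber at 20° C.; rating 0–100 = % disease control vs controls.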

[2] = system: Blumeria graminis f. sp. tritici; test: Test C: wheat powdery mildew, preventive spray on wheat seedlings; conditions: rated after 8 days, 100 = 100% disease control, 0 = no control; for Test C disease control rating (wheat powdery mildew) / pest or weed control at 50 ppm: 50 ppm
Method in brief: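 Compound dissolved in acetone (3% of final volume), then suspended in 50/50 acetone/water with 250 ppm PEG400 and sprayed to run-off on wheat seedlings. Inoculated next day with B. graminis f. sp. tritici spore dust, kept 8 days at 20° C; visual rating, 100 = full control, 0 = none, relative to controls.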

Botrytis cinerea = test: Test E: tomato Botrytis, preventive spray on tomato seedlings; conditions: 100 = 100% disease control, 0 = no control; for Test E disease control rating (tomato Botrytis) / pest or weed control at 50 ppm: 50 ppm
Method in brief: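 Tomato seedlings sprayed to run-off with compound (ppm) in acetone/water with 250 ppm PEG400, then inoculated next day with B. cinerea spores. Held 48 h at 20 °C in saturated atmosphere, then 3 days at 24 °C. Visual rating 0–100% disease control relative to untreated controls.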

Phakopsora pachyrhizi = test: Test D: Asian soybean rust, preventive spray on soybean seedlings; conditions: 100 = 100% disease control, 0 = no control; for Test D disease control rating (Asian soybean rust) / pest or weed control at 50 ppm: 50 ppm
Method in brief: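 Soybean seedlings sprayed to run-off with compound suspension (ppm, in 50/50 acetone/water with 250 ppm PEG400), inoculated next day with P. pachyrhizi spores, held 24 h saturated at 22°C then 8 days at 22°C. Visual rating 0-100% disease control relative to controls.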

[3] = Alternaria solani, read-out: Test F disease control rating (tomato early blight)
[4] = Zymoseptoria tritici, read-out: Test A disease control rating (wheat leaf blotch)
[5] = read-out: Test B disease control rating (wheat leaf rust)
[6] = Blumeria graminis, 192 h, read-out: Test C disease control rating (wheat powdery mildew)
[7] = Botrytis cinerea, read-out: Test E disease control rating (tomato Botrytis)
[8] = Phakopsora pachyrhizi, read-out: Test D disease control rating (Asian soybean rust)

| Structure (SMILES) | Test F disease control rating (tomato early blight) (Alternaria solani) [%] | Test A disease control rating (wheat leaf blotch) (Septoria tritici) [%] | Test B disease control rating (wheat leaf rust) [1] [%] | Test C disease control rating (wheat powdery mildew) [2] [%] | Test E disease control rating (tomato Botrytis) (Botrytis cinerea) [%] | Test D disease control rating (Asian soybean rust) (Phakopsora pachyrhizi) [%] | pest or weed control at 50 ppm (Alternaria solani; [3]) [%] | pest or weed control at 50 ppm (Septoria tritici; [4]) [%] | pest or weed control at 50 ppm [1, 5] [%] | pest or weed control at 50 ppm [2, 6] [%] | pest or weed control at 50 ppm (Botrytis cinerea; [7]) [%] | pest or weed control at 50 ppm (Phakopsora pachyrhizi; [8]) [%] | pest or weed control at 10 ppm (Alternaria solani; Alternaria solani, 10 ppm, read-out: Test F disease control rating (tomato early blight)) [%] | pest or weed control at 10 ppm (Septoria tritici; Zymoseptoria tritici, 10 ppm, read-out: Test A disease control rating (wheat leaf blotch)) [%] | pest or weed control at 10 ppm ([1]; 10 ppm, read-out: Test B disease control rating (wheat leaf rust)) [%] | pest or weed control at 10 ppm ([2]; Blumeria graminis, 192 h, 10 ppm, read-out: Test C disease control rating (wheat powdery mildew)) [%] | pest or weed control at 10 ppm (Botrytis cinerea; Botrytis cinerea, 10 ppm, read-out: Test E disease control rating (tomato Botrytis)) [%] | pest or weed control at 10 ppm (Phakopsora pachyrhizi; Phakopsora pachyrhizi, 10 ppm, read-out: Test D disease control rating (Asian soybean rust)) [%] |
| --- | --- | --- | --- | --- | --- | --- | --- | --- | --- | --- | --- | --- | --- | --- | --- | --- | --- | --- |
| CCc1nn(C)c(Nc2ccc(OC)cc2[N+](=O)[O-])c1-c1ccc(F)cc1F [Compound 45] | 33 | 100 | 86 | 95 | 99 | 0 | – | – | – | – | – | – | – | – | – | – | – | – |
| CCc1nn(C)c(Nc2c(F)cccc2[N+](=O)[O-])c1-c1ccc(F)cc1F [Compound 46] | 81 | 100 | 98 | 99 | 99 | 0 | – | – | – | – | – | – | – | – | – | – | – | – |
| Cc1nn(C)c(Nc2c(F)cc(I)cc2[N+](=O)[O-])c1-c1ccc(F)cc1Cl [Compound 47] | 96 | 100 | 97 | 89 | 95 | 92 | – | – | – | – | – | – | – | – | – | – | – | – |
| COc1ccc(-c2c(C)nn(C)c2Nc2c(F)cccc2[N+](=O)[O-])c(C)c1 [Compound 48] | 97 | 100 | 95 | 89 | 97 | 0 | – | – | – | – | – | – | – | – | – | – | – | – |
| Cc1nn(C)c(Nc2c(Cl)cc(F)cc2[N+](=O)[O-])c1-c1c(F)cccc1Cl [Compound 49] | 26 | 100 | 100 | 95 | 94 | 25 | – | – | – | – | – | – | – | – | – | – | – | – |
| CCc1nn(C)c(Nc2c(F)cc(F)cc2[N+](=O)[O-])c1-c1ccc(F)cc1F [Compound 50] | 98 | 100 | 98 | 100 | 92 | 0 | – | – | – | – | – | – | – | – | – | – | – | – |
| Cc1nn(C)c(Nc2c(F)cc(F)cc2[N+](=O)[O-])c1-c1ccc(F)cc1Br [Compound 51] | 99 | 100 | 100 | 100 | 98 | 79 | – | – | – | – | – | – | – | – | – | – | – | – |
| COc1ccc(Nc2c(-c3ccc(F)cc3Br)c(C)nn2C)c([N+](=O)[O-])c1 [Compound 52] | 94 | 100 | 100 | 90 | 99 | 59 | – | – | – | – | – | – | – | – | – | – | – | – |
| Cc1nn(C)c(Nc2c(F)cccc2[N+](=O)[O-])c1-c1c(Cl)cccc1Cl [Compound 53] | 98 | 100 | 100 | 98 | 98 | 0 | – | – | – | – | – | – | – | – | – | – | – | – |
| Cc1nn(C)c(Nc2ccc(F)cc2[N+](=O)[O-])c1-c1c(Cl)cccc1Cl [Compound 54] | 0 | 100 | 91 | 93 | 21 | 0 | – | – | – | – | – | – | – | – | – | – | – | – |
| Cc1nn(C)c(Nc2c(Cl)cc(Br)cc2[N+](=O)[O-])c1-c1ccc(F)cc1F [Compound 55] | 0 | 100 | 99 | 90 | 34 | 0 | – | – | – | – | – | – | – | – | – | – | – | – |
| Cc1nn(C)c(Nc2c(F)cc(Br)cc2[N+](=O)[O-])c1-c1ccc(F)cc1F [Compound 56] | 99 | 100 | 100 | 100 | 99 | 65 | – | – | – | – | – | – | – | – | – | – | – | – |
| COc1cc(F)c(Nc2c(-c3ccc(F)cc3F)c(C)nn2C)c([N+](=O)[O-])c1 [Compound 57, 4-(2,4-difluorophenyl)-N-(2-fluoro-4-methoxy-6-nitrophenyl)-1,3-dimethyl-1H-pyrazol-5-amine] | – | – | – | – | – | – | 100 | 100 | 100 | 100 | 100 | 96 | – | – | – | – | – | – |
| Cc1nn(C)c(Nc2c(F)cc(F)cc2[N+](=O)[O-])c1-c1ccc(F)cc1F [Compound 58] | 99 | 100 | 100 | 99 | 99 | 36 | – | – | – | – | – | – | – | – | – | – | – | – |
| Cc1nn(C)c(Nc2c(Cl)cc(Cl)cc2[N+](=O)[O-])c1-c1ccc(F)cc1Cl [Compound 59] | 92 | 100 | 100 | 99 | 99 | 96 | – | – | – | – | – | – | – | – | – | – | – | – |
| Cc1nn(C)c(Nc2c(F)cccc2[N+](=O)[O-])c1-c1ccc(F)cc1Br [Compound 60, 4-(2-bromo-4-fluorophenyl)-N-(2-fluoro-6-nitrophenyl)-1,3-dimethyl-1H-pyrazol-5-amine] | – | – | – | – | – | – | 99 | 100 | 100 | 100 | 99 | 97 | 75 | 99 | 100 | 85 | 99 | 0 |
| Cc1nn(C)c(Nc2c(F)cc(Br)cc2[N+](=O)[O-])c1-c1ccc(F)cc1Cl [Compound 61, N-(4-bromo-2-fluoro-6-nitrophenyl)-4-(2-chloro-4-fluorophenyl)-1,3-dimethyl-1H-pyrazol-5-amine] | – | – | – | – | – | – | 99 | 100 | 100 | 99 | 99 | 84 | – | – | – | – | – | – |
| Cc1nn(C)c(Nc2c(F)cccc2[N+](=O)[O-])c1-c1c(F)cc(F)cc1F [Compound 62] | 99 | 100 | 100 | 100 | 99 | 100 | – | – | – | – | – | – | – | – | – | – | – | – |
